Source: US12208077B2, “Synergistic composition for potentiating stabilized ATP” (CELAGENEX RESEARCH (INDIA) PVT. LTD., priority 2021, dated 2025)

How the values were obtained:
[1] = test system: HepG2 cells; assay: Estimation of cellular ATP levels in HepG2 cells (BioVision kit); assay type: cell-based, human; conditions: 24 hr treatment, amount of each test substance as in the group name (Table 1/3)
Method: In vitro evaluation of the modulatory potential of the test substances on cellular ATP levels in (HepG2) human Hepatocellular carcinoma cell line.
(§1) About 10 mg of all the test substances were dissolved separately with 1 ml DMEM-HG supplemented with 2% inactivated FBS to obtain a stock solution of 10 mg/ml concentration and sterilized by 0.22u syringe filtration. Diluted the stock to desired concentration for carrying out further studies.
(§2) Cell line HepG2 was procured from NCCS (National Center for Cell Sciences), Pune, and was cultured in DMEM-HG supplemented with 10% inactivated Fetal Bovine Serum (FBS), penicillin (100 IU/ml), streptomycin (100 μg/ml) and amphotericin B (5 μg/ml) in a humidified atmosphere of 5% CO2 at 37° C. until confluent. The cells were dissociated with TPVG solution (0.2% trypsin, 0.02% EDTA, 0.05% glucose in PBS). The stock cultures were grown in 25 cm^2 culture flasks and all experiments were carried out in 96 well microtitre plates (Tarsons India Pvt. Ltd., Kolkata, India).
HepG2 cells were trypsinized from stock culture flasks and the cell count was adjusted to 1.0×10^5cells/ml, the cell suspension was seeded into a 96-well plate. After 24 hr, cell cultures with 70-80% confluency, cells were treated with different non-toxic concentrations of test substances. After 24 hr of treatment, the plate was washed with phosphate buffer saline. The cellular ATP levels determination was performed according to the instruction given in the kit manual (BioVision, #K354-100). At the end of the experiment, the optical density was read at 570 nm using microplate reader. From the absorbance values, the cellular ATP levels were estimated using kit protocol and the concentration of cellular ATP levels in treated groups were determined in comparison to the control groups.

[2] = test system: HepG2 cell line; assay: In vitro cytotoxicity by MTT assay on HepG2 cell line; assay type: cell-based, human; conditions: Homo sapiens, concentration needed to inhibit growth of the cell by 50%, 24 h, read-out: CTC50
Method: (§3) The in vitro cytotoxicity was performed on HepG2 (Human Hepatocellular Carcinoma) cell line to find the non-toxic concentrations of the test substances by MTT assay and evaluate their modulatory potential on cellular ATP levels
as §1, §2
(§4) The monolayer cell culture was trypsinized and the cell count was adjusted to 1.0×10^5cells/ml using DMEM-HG containing 10% FBS. To each well of the 96 well microtitre plate, 0.1 ml of the diluted cell suspension was added. After 24 h, when a partial monolayer was formed, the supernatant was flicked off, the monolayer was washed once with medium and 100 μl of different concentrations of test substances were added. The plate was then incubated at 37° C. for 24 h in a 5% CO2 atmosphere, and microscopic examination was carried out and observations were noted after 24 h time.
(§5) After 24 h of incubation, the drug solutions in the wells were discarded and 50 μl of MTT in DPBS was added to each well. The plate was gently shaken and incubated for 3 h at 37° C. in a 5% CO2 atmosphere. The supernatant was removed and 100 μl of 2-propanol was added and the plate was gently shaken to solubilize the formed formazan. The absorbance was measured using a microplate reader at a wavelength of 570 nm. The percentage growth inhibition was calculated using the standard formula. The concentration of test substances, needed to inhibit the growth of the cell by 50% i.e., CTC50 values were generated from the dose-response curves

[3] = as above; assay type: cell-based, human; conditions: human, HepG2 cells; for cytotoxicity at 24 h, 62.5 μg/mL: Test Conc. 62.5 μg/mL; for cytotoxicity at 24 h, 125 μg/mL: Test Conc. 125 μg/mL; for cytotoxicity at 24 h, 250 μg/mL: Test Conc. 250 μg/mL; for cytotoxicity at 24 h, 500 μg/mL: Test Conc. 500 μg/mL; for cytotoxicity at 24 h, 1000 μg/mL: Test Conc. 1000 μg/mL; for cytotoxicity at 24 h, 2000 μg/mL: Test Conc. 2000 μg/mL; for cytotoxicity at 24 h, 3000 μg/mL: Test Conc. 3000 μg/mL; for cytotoxicity at 24 h, 4000 μg/mL: Test Conc. 4000 μg/mL; for cytotoxicity at 24 h, 5000 μg/mL: Test Conc. 5000 μg/mL
Method: as §3, §1, §2, §4, §5

[4] = test system: Patients with hepatic encephalopathy (HE); conditions: patients with hepatic encephalopathy treated with ALCAR; cited from earlier work
[5] = test system: MS-related fatigue; conditions: treatment of MS-related fatigue; cited from earlier work
[6] = cited from earlier work
[7] = test system: erythrocytes; conditions: humans; after 24 h of continuous infusion; dose-dependent; cited from earlier work
[8] = cited from earlier work; remark: listed apart in the source

Question: Which “Cellular ATP” value [1] does the source give for `OO` [Composition H2O2, H2O2, reference compound] here?
Answer: Its value is 22.35 ± 0.48 nM.

Question: And the “Percentage enhancement of cellular ATP levels over cell control” value (from here on “Percentage enhancement”) [1]?
Answer: The value was −38.40%.

Question: What does the source list for `CC(=O)O[C@H](CC(=O)O)C[N+](C)(C)C` [N-Acetyl L carnitine, (3R)-3-acetyloxy-4-(trimethylazaniumyl) butanoate]?
Answer: IC50 [2]: > 5000 µg/mL; cytotoxicity at 24 h, 62.5 μg/mL [3]: 0.982 ± 0.876%; cytotoxicity at 24 h, 125 μg/mL [3]: 0.546 ± 0.408%; cytotoxicity at 24 h, 250 μg/mL [3]: 1.31 ± 0.134%; cytotoxicity at 24 h, 500 μg/mL [3]: 1.69 ± 0.204%; cytotoxicity at 24 h, 1000 μg/mL [3]: 2.46 ± 1.58%; cytotoxicity at 24 h, 2000 μg/mL [3]: 2.62 ± 0.964%; cytotoxicity at 24 h, 3000 μg/mL [3]: 3 ± 0.736%; cytotoxicity at 24 h, 4000 μg/mL [3]: 5.18 ± 2.68%; cytotoxicity at 24 h, 5000 μg/mL [3]: 32.6 ± 2.55%; Cellular ATP [1]: 39.92 ± 0.45 nM; Percentage enhancement of cellular ATP levels over cell control [1]: 10.00%; physical activity [4]: increase; severity of mental and physical fatigue [4]: decrease; efficacy compared with amantadine [5]: more effective

Question: With `CC(=O)NCCS(=O)(=O)O` [Magnesium Acetyl Taurate, magnesium; 2-acetamidoethanesulfonate; dihydrate] as the molecule, how does the IC50 [2] read?
Answer: Its IC50 is > 5000 µg/mL.

Question: What about the cytotoxicity at 24 h, 62.5 μg/mL [3] of the same molecule?
Answer: The cytotoxicity at 24 h, 62.5 μg/mL was 1.31 ± 0.231%.

Question: And the cytotoxicity at 24 h, 125 μg/mL [3]?
Answer: Its cytotoxicity at 24 h, 125 μg/mL is 1.25 ± 0.91%.

Question: What about the cytotoxicity at 24 h, 250 μg/mL [3] of the same molecule?
Answer: The cytotoxicity at 24 h, 250 μg/mL was 1.75 ± 0.43%.

Question: What about the cytotoxicity at 24 h, 500 μg/mL [3] of the same molecule?
Answer: The cytotoxicity at 24 h, 500 μg/mL was 1.53 ± 0.408%.

Question: What about the cytotoxicity at 24 h, 1000 μg/mL [3] of the same molecule?
Answer: The cytotoxicity at 24 h, 1000 μg/mL was 1.36 ± 0.967%.

Question: What about the cytotoxicity at 24 h, 2000 μg/mL [3] of the same molecule?
Answer: The cytotoxicity at 24 h, 2000 μg/mL was 6.55 ± 0.482%.

Question: And the cytotoxicity at 24 h, 3000 μg/mL [3]?
Answer: Its cytotoxicity at 24 h, 3000 μg/mL is 3.71 ± 1.34%.

Question: What about the cytotoxicity at 24 h, 4000 μg/mL [3] of the same molecule?
Answer: Its cytotoxicity at 24 h, 4000 μg/mL is 6.17 ± 2.39%.

Question: And the cytotoxicity at 24 h, 5000 μg/mL [3]?
Answer: Its cytotoxicity at 24 h, 5000 μg/mL is 12.2 ± 1.56%.

Question: And the “Cellular ATP” value [1]?
Answer: Its value is 56.28 ± 0.56 nM.

Question: And the “Percentage enhancement” value [1]?
Answer: The value was 55.07%.

Question: Which “half-life of infused ATP” value [6] does the source give for `Nc1ncnc2c1ncn2[C@@H]1O[C@H](COP(=O)(O)OP(=O)(O)OP(=O)(O)O)[C@@H](O)[C@H]1O` [ATP, Adenosine triphosphate] here?
Answer: The value was “less than one”.

Question: And the “Cellular ATP” value [1]?
Answer: Its value is 119.88 ± 0.45 nM.

Question: What about the “Percentage enhancement” value [1] of the same molecule?
Answer: The value was 230.33%.

Question: What about the “increase of ATP concentrations in erythrocytes” value [7] of the same molecule?
Answer: The value was ~60%.

Question: And the “stability in acidic conditions” value [8]?
Answer: Its value is “quickly decompose”.
